Experimental findings from patent publication US6372737B1 (priority 1996, dated 2002) are described below.

Common to all, as to format: in vivo
One test deals with Phytophthora infestans. Put plainly: whole plant or invertebrate.
The next test relates to Sphaerotheca fuliginea. Description: Sphaerotheca test (cucumber)/protective. Particulars: protective, 10 days after inoculation; for Emax at 2.5 g/ha / Emax at 12.5 g/ha: Podosphaera fuliginea, 240 h, read-out: % efficacy; for Emax at 12.5 g/ha: application rate 12.5 g/ha. As to the method: To test for protective activity, young plants are sprayed with the commercial active compound preparation at the stated application rate. After the spray coating has dried on, the plants are inoculated with an aqueous spore suspension of Sphaerotheca fuliginea. The plants then remain in a greenhouse at about 23° C. and about 70% relative atmospheric humidity.
Evaluation is carried out 10 days after the inoculation. 0% means an efficacy corresponding to that of the control, and an efficacy of 100% means that no infection is observed.

In test [1] the test system is Puccinia recondita. Description: Puccinia test (wheat)/protective. Particulars: application rate 6.25 g/ha, protective, 10 days after inoculation; for pest or weed control at 6.25 g/ha: Puccinia recondita, 240 h, read-out: Efficacy in %. As to the method:
(§1) Solvent: 25 parts by weight of N,N-dimethylacetamide
(§2) Emulsifier: 0.6 part by weight of alkylaryl polyglycol ether
(§3) To produce a suitable preparation of active compound, 1 part by weight of active compound or active compound combination is mixed with the stated amounts of solvent and emulsifier, and the concentrate is diluted with water to the desired concentration.
To test for protective activity, young plants are sprayed with the preparation of active compound at the stated application rate. After the spray coating has dried on, the plants are sprayed with a conidia suspension of Puccinia recondita. The plants remain in an incubation cabin at 20° C. and 100% relative atmospheric humidity for 48 hours.
The plants are then placed in a greenhouse at a temperature of about 20° C. and a relative atmospheric humidity of 80%, in order to promote the development of rust pustules.
(§4) Evaluation is carried out 10 days after the inoculation. 0% means an efficacy which corresponds to that of the control, whereas an efficacy of 100% means that no infection is observed.

Test [2] relates to Erysiphe graminis fsp. tritici. Put plainly: Erysiphe test (wheat)/protective. Particulars: protective, 7 days after inoculation. As to the method:
as §1, §2, §3
To test for protective activity, young plants are sprayed with the preparation of active compound at the stated application rate.
After the spray coating has dried on, the plants are dusted with spores of Erysiphe graminis fsp. tritici.
(§5) The plants are placed in a greenhouse at a temperature of about 20° C. and a relative atmospheric humidity of about 80%, in order to promote the development of mildew pustules.
(§6) Evaluation is carried out 7 days after the inoculation. 0% means an efficacy which corresponds to that of the control, whereas an efficacy of 100% means that no infection is observed.

Test [3] deals with Erysiphe graminis f.sp. hordei. Put plainly: Erysiphe test (barley)/curative. Particulars: curative, 7 days after inoculation. As to the method:
as §1, §2, §3
To test for curative activity, young plants are dusted with spores of Erysiphe graminis f.sp. hordei. 48 hours after the inoculation, the plants are sprayed with the preparation of active compound at the stated application rate.
as §5, §6

Test [4] has as its system Leptosphaeria nodorum. Put plainly: Leptosphaeria nodorum test (wheat)/protective. Particulars: application rate 6.25 g/ha, protective, 10 days after inoculation; for pest or weed control at 6.25 g/ha: Parastagonospora nodorum, 240 h, read-out: Efficacy in %. As to the method: as §1, §2, §3
To test for protective activity, young plants are sprayed with the preparation of active compound at the stated application rate. After the spray coating has dried on, the plants are sprayed with a spore suspension of Leptosphaeria nodorum. The plants remain in an incubation cabin at 20EC and 100% relative atmospheric humidity for 48 hours.
The plants are placed in a greenhouse at a temperature of about 15° C. and a relative atmospheric humidity of 80%.
as §4

The test system of test [5] is Leptosphaeria nodorum. Description: Leptosphaeria nodorum test (wheat)/curative. To be noted: curative, 10 days after inoculation. As to the method: as §1, §2, §3
To test for curative activity, young plants are sprayed with a conidia suspension of Leptosphaeria nodorum. The plants remain in an incubation cabin at 20° C. and 100% relative atmospheric humidity for 48 hours and are then sprayed with the preparation of active compound at the stated application rate.
The plants are placed in a greenhouse at a temperature of about 15° C. and a relative atmospheric humidity of about 80%.
as §4

For test [6], the system named is Erysiphe graminis f.sp. tritici. Put plainly: Erysiphe test (wheat)/curative. Particulars: curative, 7 days after inoculation. As to the method: as §1, §2, §3
To test for curative activity, young plants are dusted with spores of Erysiphe graminis f.sp. tritici. 48 hours after the inoculation, the plants are sprayed with the preparation of active compound at the stated application rate.
as §5, §6

The subject of the next test is Fusarium nivale. Description: Fusarium nivale test (triticale)/seed treatment. Particulars: dry seed dressing, about 3 weeks after sowing.
For the next test, the system named is Botrytis cinerea. Put plainly: Botrytis test (beans)/protective. To be noted: 48 h, application rate 250 g/ha, protective, two days after inoculation, read-out: % efficacy. As to the method: To test for protective activity, young plants are sprayed with the commercial active compound preparation at the stated application rate. After the spray coating has dried on, 2 small pieces of agar covered with Botrytis cinerea are placed on each leaf. The inoculated plants are placed in a darkened chamber at about 20° C. and 100% relative atmospheric humidity.
Two days after the inoculation, the size of the infected spots on the leaves is evaluated. 0% means an efficacy corresponding to that of the control, and an efficacy of 100% means that no infection is observed.

Test [7] has as its system Puccinia recondita. Put plainly: Puccinia test (wheat)/curative. To be noted: application rate 6.25 g/ha, curative, 10 days after inoculation. As to the method:
as §1, §2, §3
To test for curative activity, young plants are sprayed with a conidia suspension of Puccinia recondita. The plants remain in an incubation cabin at 20° C. and 100% relative atmospheric humidity for 48 hours. The plants are subsequently sprayed with the preparation of active compound at the stated application rate.
The plants are placed in a greenhouse at a temperature of about 20° C. and a relative atmospheric humidity of about 80%, in order to promote the development of rust pustules.
as §4

Setting [8] is: application rate 5 g/ha, tomato, protective, 3 days after inoculation.
[9] abbreviates: Phytophthora infestans, in Solanum lycopersicum, 72 h, read-out: % efficacy.
Setting [10] is: application rate 75 mg/kg of seed.
[11] abbreviates: application rate 25 mg/kg of seed.

Description for Fusarium nivale: To dress the seed, the infected seed together with the seed dressing is shaken for 3 minutes in a sealed glass flask.
About 3 weeks after sowing, the plants are evaluated for symptoms of snow mould.

As to `CCC1(C(=O)N[C@H](C)c2ccc(Cl)cc2)C(C)C1(Cl)Cl` (stereo partly drawn) [(ω), N-(R)-[1-(4-chloro-phenyl)-ethyl]-2,2-dichloro-1-ethyl-3t-methyl-1r-cyclopropane-carboxarnide], the “% efficacy” value in the test on Phytophthora infestans (setting [8]) was 5%.

As for cymoxanil [(M)], the “% efficacy” value in the test on Phytophthora infestans (in vivo) was 12%.

In the case of mancozeb [(II)], the “% efficacy” value in the test with Phytophthora infestans (application rate 50 g/ha, tomato, protective, 3 days after inoculation) worked out at 54%.

Consider `CC(C)(C)C(O)C(Oc1ccc(-c2ccccc2)cc1)n1cncn1` (stereo not drawn) [(C), bitertanol], for which, in the test on Sphaerotheca fuliginea (application rate 2.5 g/ha), the Emax at 2.5 g/ha came to 20%.

On to `COCC(=O)N(c1c(C)cccc1C)C(C)C(=O)OC` (stereo not drawn) [(N), metalaxyl], for which, in the test on Phytophthora infestans (setting [9]), the Emax at 5 g/ha came to 1%.

For `Cc1cc(C)nc(Nc2ccccc2)n1` [(Q), pyrimethanil], the Emax at 12.5 g/ha in the test with Sphaerotheca fuliginea worked out at 10%.

Turning to `CCCN(CC)CC1COC2(CCC(C(C)(C)C)CC2)O1` (stereo not drawn) [(δ), 8-t-butyl-2-(N-ethyl-N-n-propyl-amino)-methyl-1,4-dioxaspiro[5.4]-decane], the Efficacy in % in the test on Puccinia recondita [1] stood at 13%; in [2] (application rate 6.25 g/ha) it was 14%; in test [3] (application rate 6.25 g/ha), 0%; in the test with Leptosphaeria nodorum [4], 25%; with Leptosphaeria nodorum [5] (application rate 12.5 g/ha) it was 25%. The “% efficacy” value in the test with Sphaerotheca fuliginea (application rate 2.5 g/ha) is 10%.

Regarding `N#Cc1c[nH]cc1-c1cccc2c1OC(F)(F)O2` [(Y), fludioxonil], the Efficacy in % worked out at 0% in [6] (application rate 25 g/ha) and 92% with Fusarium nivale (setting [10]). Further, the pest or weed control at 6.25 g/ha is 13% with Puccinia recondita [1] and 25% in the test with Leptosphaeria nodorum [4].

Regarding `O=C(Nc1ccccc1)N(Cc1ccc(Cl)cc1)C1CCCC1` [(ρ), pencycuron], in the test with Fusarium nivale (setting [11]), the Efficacy in % turned out to be 29%.

Turning to `O=[N+]([O-])c1cc(C(F)(F)F)c(Cl)c([N+](=O)[O-])c1Nc1ncc(C(F)(F)F)cc1Cl` [(π), fluazinam], the Emax at 5 g/ha in the test on Phytophthora infestans (setting [9]) turned out to be 11%.

For `CO/C=C(/C(=O)OC)c1ccccc1Oc1cc(Oc2ccccc2C#N)ncn1` [(U), azoxystrobin], the Emax at 2.5 g/ha in the test on Sphaerotheca fuliginea (application rate 2.5 g/ha) was 57%.

As for `CC1(C(=O)Nc2ccc(O)c(Cl)c2Cl)CCCCC1` [(ε), 2,3-dichloro-4-(1-methylcyclohexylcarbonylamino)-phenol], the Emax at 5 g/ha with Phytophthora infestans (setting [9]) worked out at 14%.

For the molecule `COc1ccc(/C(=C/C(=O)N2CCOCC2)c2ccc(Cl)cc2)cc1OC` [(L), dimetomorph], the Emax at 1 g/ha in the test on Phytophthora infestans (setting [9]) was found to be 0%.

With `CCO[PH](=O)O` [(O), fosetyl-Al], the Emax at 250 g/ha with Botrytis cinerea came to 4%.

Consider `N#Cc1c[nH]cc1-c1cccc(Cl)c1Cl` [(Fenpiclonil) V, fenpiclonil], for which the Efficacy in % in the test on Fusarium nivale (setting [10]) was 67%.

Take `CN(C)S(=O)(=O)N(SC(F)(Cl)Cl)c1ccccc1` [(B1), dichlorofluanide]: the “% efficacy” value in the test on Sphaerotheca fuliginea (application rate 25 g/ha) was determined as 20%.

For the molecule propineb [(A)], the “% efficacy” value with Sphaerotheca fuliginea (application rate 25 g/ha) was found to be 45%.

`CSC(=O)c1cccc2nnsc12` [(β)]: the “% efficacy” value in the test with Phytophthora infestans (setting [8]) was 0%.

As to `CC1(C)CCC(Cc2ccc(Cl)cc2)C1(O)Cn1cncn1` (stereo not drawn) [(W), metconazole], the pest or weed control at 6.25 g/ha with Puccinia recondita [1] was determined as 75%; in the test with Leptosphaeria nodorum [4] it was 50%. For the same molecule, the Efficacy in % in test [2] (application rate 6.25 g/ha) came out at 43%; in test [3] (application rate 6.25 g/ha), 33%; in the test with Leptosphaeria nodorum [5] (application rate 12.5 g/ha) it was 25%; in the test with Puccinia recondita [7], 50%.

Turning to `Cc1cc(C2CC2)nc(Nc2ccccc2)n1` [(R), cyprodinyl], the Efficacy in % in test [6] (application rate 25 g/ha) is 17%; in test [2] (application rate 12.5 g/ha), 0%; in the test on Leptosphaeria nodorum [5] (application rate 6.25 g/ha), 50%; in the test on Puccinia recondita [7] it was 33%. Further, the values for the pest or weed control at 6.25 g/ha in the test on Puccinia recondita [1] and with Leptosphaeria nodorum [4] were 13% and 25%, respectively. Further, in the test with Phytophthora infestans (setting [9]), the Emax at 5 g/ha worked out at 0%.

Consider `O=C1c2ccccc2C(=O)N1SC(Cl)(Cl)Cl` [(K), folpet], for which the Emax at 10 g/ha in the test on Phytophthora infestans (setting [9]) was 27%.

For the molecule `CC(C)(C)C(=O)C(Oc1ccc(Cl)cc1)n1cncn1` (stereo not drawn) [(E), triadimefon], the Emax at 2.5 g/ha in the test on Sphaerotheca fuliginea (application rate 2.5 g/ha) came to 30%.

For `Fc1ccc([C@]2(Cn3cncn3)O[C@H]2c2ccccc2Cl)cc1` (racemic) [(V), epoxiconazole], the pest or weed control at 6.25 g/ha amounted to 81% with Puccinia recondita [1] and 50% in the test on Leptosphaeria nodorum [4]. Also, the Efficacy in % in [3] (application rate 12.5 g/ha) worked out at 92%.

Turning to `CO/N=C(\C(=O)OC)c1ccccc1COc1ccccc1C` [(T), kresoxim-methyl], the Efficacy in % in [6] (application rate 6.25 g/ha) was determined as 0%; in test [2] (application rate 25 g/ha) it was 86%; in test [3] (application rate 12.5 g/ha), 67%; with Leptosphaeria nodorum [5] (application rate 12.5 g/ha), 50%. Besides, the pest or weed control at 6.25 g/ha came to 25% in the test with Puccinia recondita [1] and 0% in the test on Leptosphaeria nodorum [4]. Besides, the Emax at 1 g/ha in the test on Phytophthora infestans (setting [9]) was found to be 14%.

`Cc1ccc(N(SC(F)(Cl)Cl)S(=O)(=O)N(C)C)cc1` [(B2), tolylfluanide]: the “% efficacy” value in the test on Sphaerotheca fuliginea (application rate 25 g/ha) is 22%.

Regarding `CC(C)(C)C(O)(CCc1ccc(Cl)cc1)Cn1cncn1` (stereo not drawn) [(D), tebuconazole], the pest or weed control at 6.25 g/ha in the test on Puccinia recondita [1] came out at 38%; with Leptosphaeria nodorum [4] it was 25%. In addition, the Emax at 5 g/ha in the test on Phytophthora infestans (setting [9]) was 26%. Also, the Efficacy in % in test [2] (application rate 6.25 g/ha) is 0%; in [3] (application rate 6.25 g/ha), 33%; in test [3] (application rate 25 g/ha), 83%; with Fusarium nivale (setting [11]), 20%.

As for `O=C1C2CC=CCC2C(=O)N1SC(Cl)(Cl)Cl` (stereo not drawn) [(θ), captan], in the test on Sphaerotheca fuliginea, the Emax at 12.5 g/ha is 0%.
